Test: recombinant UMI read abundance after kanamycin selection (control-corrected) (log10(CPM+1)); higher = more efficient recombination; extreme values may be limits of the assay; sequences stand for … in AGTGCAGAGAAAATCGGCCAGTTTTCTCTGCCTGCAGTCCGCATGCCGTGGGACCCCTTGGGTTCTAACCTGTTGCCTAGATTTATGCAGCGGACTGCCTTTCTCCCAAAGTGATAAACCGG…AGGTTGGTTTCACT; site = the 11-nt donor
Method in brief: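 Sequenced counts of recombinant UMIs were turned into CPM, averaged across replicates and scaled with control-derived factors. The reported figure is log10(CPM+1). Those UMIs, each 12 nt long, tagged donor and donor-binding-loop pairs on a plasmid with a promoterless kanamycin gene, screened as a pool in Escherichia coli with IPTG (0.07 mM) plus kanamycin or without selection.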
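Further: IS621 bridge recombinase in Escherichia coli cells against a fixed T5 target plasmid.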

Sequence | recombinant UMI read abundance (log10)
CAAGCCACATGGACCGGTTTTCCCGGTAATCCGTATTTGGG (site CAAGACACTCC) | 0.0254
CAAGCCACATGGACCGGTTTTCCCGGTAATCCGTATTTGGG (site CAAGCCACTCC) | 0.408
CAAGCCACATGGACCGGTTTTCCCGGTAATCCGTATTTGGG (site CAAGGCACTCC) | 0.00628
CAAGCCACATGGACCGGTTTTCCCGGTAATCCGTATTTGGG (site CAAGTCACTCC) | 0.0106
CAAGCCCCATGGACCGGTTTTCCCGGTAATCCGTATTTGCT (site CAAGCCCCTAG) | 2.06
CAAGCCGCATGGACCGGTTTTCCCGGTAATCCGTATTTGCT (site CAAGCAGCTAG) | 2.06
CAAGCCGCATGGACCGGTTTTCCCGGTAATCCGTATTTGCT (site CAAGCCGCTAG) | 2.56
CAAGCCGCATGGACCGGTTTTCCCGGTAATCCGTATTTGCT (site CAAGCGGCTAG) | 0.00324
CAAGCCGCATGGACCGGTTTTCCCGGTAATCCGTATTTGCT (site CAAGCTGCTAG) | 0
CAAGCGCCATGGACCGGTTTTCCCGGTAATCCGTATTTGGG (site CAAGCGCCTCA) | 0.0177
CAAGCGCCATGGACCGGTTTTCCCGGTAATCCGTATTTGGG (site CAAGCGCCTCC) | 0.0155
CAAGCGCCATGGACCGGTTTTCCCGGTAATCCGTATTTGGG (site CAAGCGCCTCG) | 0.0252
CAAGCGCCATGGACCGGTTTTCCCGGTAATCCGTATTTGGG (site CAAGCGCCTCT) | 0.0195
CAAGCGCCATGGACCGGTTTTCCCGGTAATCCGTATTTGTG (site AAAGCGCCTCA) | 0.0176
CAAGCGCCATGGACCGGTTTTCCCGGTAATCCGTATTTGTG (site CAAACGCCTCA) | 0.0285
CAAGCGCCATGGACCGGTTTTCCCGGTAATCCGTATTTGTG (site CAACCGCCTCA) | 0.0221
CAAGCGCCATGGACCGGTTTTCCCGGTAATCCGTATTTGTG (site CAAGAGCCTCA) | 0.0105
CAAGCGCCATGGACCGGTTTTCCCGGTAATCCGTATTTGTG (site CAAGCACCTCA) | 0.0231
CAAGCGCCATGGACCGGTTTTCCCGGTAATCCGTATTTGTG (site CAAGCCCCTCA) | 0.0168

Sequence | recombinant UMI read abundance (log10)
CAAGCGCCATGGACCGGTTTTCCCGGTAATCCGTATTTGTG (site CAAGCGACTCA) | 0.0185
CAAGCGCCATGGACCGGTTTTCCCGGTAATCCGTATTTGTG (site CAAGCGCCTAA) | 0.00762
CAAGCGCCATGGACCGGTTTTCCCGGTAATCCGTATTTGTG (site CAAGCGCCTCA) | 0.0111
CAAGCGCCATGGACCGGTTTTCCCGGTAATCCGTATTTGTG (site CAAGCGCCTCC) | 0.0342
CAAGCGCCATGGACCGGTTTTCCCGGTAATCCGTATTTGTG (site CAAGCGCCTCG) | 1.36
CAAGCGCCATGGACCGGTTTTCCCGGTAATCCGTATTTGTG (site CAAGCGCCTCT) | 0.218
CAAGCGCCATGGACCGGTTTTCCCGGTAATCCGTATTTGTG (site CAAGCGCCTGA) | 0.706
CAAGCGCCATGGACCGGTTTTCCCGGTAATCCGTATTTGTG (site CAAGCGCCTTA) | 0.627
CAAGCGCCATGGACCGGTTTTCCCGGTAATCCGTATTTGTG (site CAAGCGGCTCA) | 0.00842
CAAGCGCCATGGACCGGTTTTCCCGGTAATCCGTATTTGTG (site CAAGCGTCTCA) | 1.85
CAAGCGCCATGGACCGGTTTTCCCGGTAATCCGTATTTGTG (site CAAGCTCCTCA) | 0.185
CAAGCGCCATGGACCGGTTTTCCCGGTAATCCGTATTTGTG (site CAAGGGCCTCA) | 0.0216
CAAGCGCCATGGACCGGTTTTCCCGGTAATCCGTATTTGTG (site CAAGTGCCTCA) | 0.0157
CAAGCGCCATGGACCGGTTTTCCCGGTAATCCGTATTTGTG (site CAATCGCCTCA) | 0.0117
CAAGCGCCATGGACCGGTTTTCCCGGTAATCCGTATTTGTG (site CACGCGCCTCA) | 0.0238
CAAGCGCCATGGACCGGTTTTCCCGGTAATCCGTATTTGTG (site CAGGCGCCTCA) | 0.0473
CAAGCGCCATGGACCGGTTTTCCCGGTAATCCGTATTTGTG (site CATGCGCCTCA) | 0.047
CAAGCGCCATGGACCGGTTTTCCCGGTAATCCGTATTTGTG (site CCAGCGCCTCA) | 0.00697
CAAGCGCCATGGACCGGTTTTCCCGGTAATCCGTATTTGTG (site CGAGCGCCTCA) | 0.0092

Sequence | recombinant UMI read abundance (log10)
CAAGCGCCATGGACCGGTTTTCCCGGTAATCCGTATTTGTG (site CTAGCGCCTCA) | 0.0166
CAAGCGCCATGGACCGGTTTTCCCGGTAATCCGTATTTGTG (site GAAGCGCCTCA) | 0.0137
CAAGCGCCATGGACCGGTTTTCCCGGTAATCCGTATTTGTG (site TAAGCGCCTCA) | 0.0306
CAAGCGGCATGGACCGGTTTTCCCGGTAATCCGTATTTGCT (site CAAGCAGCTAG) | 0.584
CAAGCGGCATGGACCGGTTTTCCCGGTAATCCGTATTTGCT (site CAAGCCGCTAG) | 0
CAAGCGGCATGGACCGGTTTTCCCGGTAATCCGTATTTGCT (site CAAGCGGCTAG) | 1.72
CAAGCGGCATGGACCGGTTTTCCCGGTAATCCGTATTTGCT (site CAAGCTGCTAG) | 0
CAAGCTGCATGGACCGGTTTTCCCGGTAATCCGTATTTGGG (site CAAGCTGCTCC) | 0.0432
CAAGGACCATGGACCGGTTTTCCCGGTAATCCGTATTTGGG (site CAAGGACCTCC) | 0
CAAGGACCATGGACCGGTTTTCCCGGTAATCCGTATTTGGG (site CCAGGACCTCC) | 0.0136
CAAGGACCATGGACCGGTTTTCCCGGTAATCCGTATTTGGG (site CGAGGACCTCC) | 0.0074
CAAGGACCATGGACCGGTTTTCCCGGTAATCCGTATTTGGG (site CTAGGACCTCC) | 0.0255
CAAGGCACATGGACCGGTTTTCCCGGTAATCCGTATTTGGG (site CAAGACACTCC) | 0.00686
CAAGGCACATGGACCGGTTTTCCCGGTAATCCGTATTTGGG (site CAAGCCACTCC) | 0.0196
CAAGGCACATGGACCGGTTTTCCCGGTAATCCGTATTTGGG (site CAAGGCACTCC) | 0.0216
CAAGGCACATGGACCGGTTTTCCCGGTAATCCGTATTTGGG (site CAAGTCACTCC) | 0.397
CAAGGCCCATGGACCGGTTTTCCCGGTAATCCGTATTTGTT (site CAAGGCCCTAA) | 0.0195
CAAGGCCCATGGACCGGTTTTCCCGGTAATCCGTATTTGTT (site CACGGCCCTAA) | 0.0285
CAAGGCCCATGGACCGGTTTTCCCGGTAATCCGTATTTGTT (site CAGGGCCCTAA) | 0.0144

Source: the supplement of paper PMC11208160
